Publication PMC7518156 (PeerJ, 2020)
Like-named read-outs stand apart in the source and are kept apart here.

Experiment: Pharmacokinetics of ERL and GEF in Wistar rats after four weeks consumption of water or flavoured water (plasma, UPLC-MS/MS, non-compartmental analysis)
Type: in vivo
Settings: for AUC(0-t): read-out: AUC0-48; for half-life: read-out: t½ (converted)
Description: Fifty healthy male Wistar rats weighing 250 ± 30 g were obtained from the animal house, College of Pharmacy, King Saud University, Riyadh, Saudi Arabia. Rats were randomly divided into ten cages (n = 5). All individualized ventilated cages (IVC) type IV used in this study were of 20″L × 11″W × 9″ in dimension capable of hosting 4–5 rats. Cages density, bedding, and sanitation frequency was similar in all cages. Cages were housed at room temperature (25 °C) and at an average relative humidity of 50%. Daily observation of all rats was required to ensure that all animals maintained good health. All animal experiments strictly followed the guidelines of the Ethical Committee for Performing Studies on Animals, King Saud University, Riyadh, Saudi Arabia, protocol number KSU-SE-19-13.
Four types of FW, (Aquafina®, a product of Pepsi-Cola®, Saudi Industrial Projects Company, Jeddah, Saudi Arabia) with different flavours, specifically berry (group II), peach (group III), lime (group IV), and pineapple FW (group V) were used. Other components found in FW used in this study include water, preservatives (sodium phosphate, potassium sorbet, sodium benzoate), acidifiers (citric acid, maleic acid), sweeteners (aspartame, potassium acesulfame, allose), acidity regulator (sodium citrate), and antioxidant agent (calcium disodium EDTA). […] The parallel design was used in this study to avoid animals’ physiological changes that could occur in the cross-over design, possibly affecting PK profiles of drug substances. All animals involved in the study were deprived from food, but not water/FW, for at least 12 h before drug administration. […] Drugs were administered to the rats between 7:00 am and 8:00 am. Rats were separately weighed from day one of water/FW consumption prior to drug administration for accurate dose calculation (Fig. S1). Blood samples (0.3 mL) were collected from each rat immediately prior to dosing (0 time) and at predetermined time points (0.5, 1, 2, 3, 5, 24, and 48 h) post drug administration. Blood samples were withdrawn and processed as described previously ([Maher et al., 2017]; [Maher, Alzoman & Shehata, 2016]; [Maher, Alzoman & Shehata, 2018]). Specifically, blood samples were withdrawn from the retro-orbital sinus into a series of heparinized tubes. Plasma was separated from collected blood samples by centrifugation at 4,500 rpm for 30 min where the centrifuge was maintained at 4 °C, and then stored at −20 °C until the day of analysis. […] A mixture of acetonitrile: water (80: 20, v/v), with 0.1% formic acid was used as a mobile phase at a flow rate of 0.2 mL/min ([Maher, Alzoman & Shehata, 2016]).
Cmax and tmax were obtained from the corresponding plasma concentration–time curve (Figs. 1A and 1B). […] The area under the plasma concentration–time curve from time 0 to the last sampling time t, 48 h (AUC0–t) was calculated using the trapezoidal rule. […] AUC0–∞ was also derived by summing up AUC0–t andthe area obtained by extrapolation from time t to ∞. The latter area was calculated from the division of the last measured concentration (Clast) by λz.
Results were presented as mean ± SD. PK parameters of all treated groups following the consumption of FW were compared with control (rats having free access to water), using one-way ANOVA and Bonferroni’s multiple comparisons test. Statistical significance was obtained with p-values ≤ 0.05.

[1] = male, Wistar, rat, plasma, po, 20 mg/kg, rats, 20 mg/kg oral, +Pineapple FW, average, read-out: Conc*10 (ng/mL plasma)
[2] = male, Wistar, rat, plasma, po, 20 mg/kg, rats, 20 mg/kg oral, drug alone (water), average, read-out: Conc*10 (ng/mL plasma)
[3] = male, Wistar, rat, plasma, po, 20 mg/kg, rats, 20 mg/kg oral, four weeks berry FW, n = 5, mean (SD)
[4] = male, Wistar, rat, plasma, po, 20 mg/kg, rats, 20 mg/kg oral, four weeks peach FW, n = 5, mean (SD)
[5] = male, Wistar, rat, plasma, po, 20 mg/kg, rats, 20 mg/kg oral, four weeks pineapple FW, n = 5, mean (SD)
[6] = male, Wistar, rat, plasma, po, 20 mg/kg, rats, 20 mg/kg oral, water (control), n = 5, mean (SD)
[7] = male, Wistar, rat, plasma, po, 20 mg/kg, raw data sheet, from average profile, +Berry FW
[8] = male, Wistar, rat, plasma, po, 20 mg/kg, raw data sheet, from average profile, +Lime FW
[9] = male, Wistar, rat, plasma, po, 20 mg/kg, raw data sheet, from average profile, +Peach FW
[10] = male, Wistar, rat, plasma, po, 20 mg/kg, raw data sheet, from average profile, +Pineapple FW
[11] = male, Wistar, rat, plasma, po, 20 mg/kg, raw data sheet, from average profile, drug alone (water)
[12] = rats, lime FW relative to control (water)
[13] = rats, pineapple FW relative to control (water)

For `COc1cc2ncnc(Nc3ccc(F)c(Cl)c3)c2cc1OCCCN1CCOCC1` [GEF, Gefitinib], the concentration at 2 h [1] was 445 ng/mL, the concentration at 3 h [1] was 259 ng/mL and the concentration at 5 h [1] was 210 ng/mL. For the same molecule, the concentration at 24 h [1] was 152 ng/mL, the concentration at 48 h [1] was 40.2 ng/mL and the concentration at 0 h (male, Wistar, rat, plasma, po, 20 mg/kg, rats, 20 mg/kg oral, drug alone (water), average, time 0 h, read-out: Conc*10 (ng/mL plasma)) was 34.5 ng/mL. It also gave a concentration at 0.5 h (male, Wistar, rat, plasma, po, 20 mg/kg, rats, 20 mg/kg oral, drug alone (water), average, time 0.5 h, read-out: Conc*10 (ng/mL plasma)) of 142 ng/mL, a concentration at 1 h (male, Wistar, rat, plasma, po, 20 mg/kg, rats, 20 mg/kg oral, drug alone (water), average, time 1 h, read-out: Conc*10 (ng/mL plasma)) of 220 ng/mL and a concentration at 2 h [2] of 402 ng/mL. The concentration at 3 h [2] was 169 ng/mL, the concentration at 5 h [2] was 148 ng/mL and the concentration at 24 h [2] was 69.8 ng/mL. It also gave a concentration at 48 h [2] of 29.2 ng/mL, an AUC(0-inf) [3] of 5230 ng·h/mL and a CL/F [3] of 74.7 mL/min/kg. The AUC(0-t) [3] was 4460 ng·h/mL, the Tmax (male, Wistar, rat, plasma, po, 20 mg/kg, rats, 20 mg/kg oral, four weeks berry FW, n = 5, mean (SD), read-out: tmax) was 2.33 h and the half-life [3] was 17.7 h. The half-life (male, Wistar, rat, plasma, po, 20 mg/kg, rats, 20 mg/kg oral, four weeks lime FW, n = 5, mean (SD)) was 16.9 h, the AUC(0-inf) [4] was 5300 ng·h/mL and the CL/F [4] was 70.3 mL/min/kg. It also gave a Cmax [4] of 365 ng/mL, an AUC(0-t) [4] of 4740 ng·h/mL and a Tmax (male, Wistar, rat, plasma, po, 20 mg/kg, rats, 20 mg/kg oral, four weeks peach FW, n = 5, mean (SD), read-out: tmax) of 2 h. For the same molecule, the half-life [4] was 15.4 h, the Cmax [5] was 445 ng/mL and the Tmax (male, Wistar, rat, plasma, po, 20 mg/kg, rats, 20 mg/kg oral, four weeks pineapple FW, n = 5, mean (SD), read-out: tmax) was 1.71 h. It also gave a half-life [5] of 17.8 h, an AUC(0-inf) [6] of 5060 ng·h/mL and a CL/F [6] of 77.3 mL/min/kg. It also gave a Cmax [6] of 406 ng/mL, an AUC(0-t) [6] of 4310 ng·h/mL and a Tmax (male, Wistar, rat, plasma, po, 20 mg/kg, rats, 20 mg/kg oral, water (control), n = 5, mean (SD), read-out: tmax) of 2 h. The half-life [6] was 17.9 h, the AUC [7] was 5230 ng·h/mL and the Cmax [7] was 322 ng/mL. The Tmax (male, Wistar, rat, plasma, po, 20 mg/kg, raw data sheet, from average profile, +Berry FW, read-out: tmax) was 2 h, the half-life [7] was 17.7 h and the AUC [8] was 15400 ng·h/mL. It also gave a Cmax [8] of 643 ng/mL, a half-life [8] of 16.9 h and an AUC [9] of 5300 ng·h/mL. It also gave a Cmax [9] of 365 ng/mL, a Tmax (male, Wistar, rat, plasma, po, 20 mg/kg, raw data sheet, from average profile, +Peach FW, read-out: tmax) of 2 h and a half-life [9] of 15.4 h. For the same molecule, the AUC [10] was 8170 ng·h/mL, the Cmax [10] was 445 ng/mL and the Tmax (male, Wistar, rat, plasma, po, 20 mg/kg, raw data sheet, from average profile, +Pineapple FW, read-out: tmax) was 2 h. It also gave a half-life [10] of 17.8 h, an AUC [11] of 5060 ng·h/mL and a Cmax [11] of 402 ng/mL. For the same molecule, the Tmax (male, Wistar, rat, plasma, po, 20 mg/kg, raw data sheet, from average profile, drug alone (water), read-out: tmax) was 2 h, the half-life [11] was 17.9 h and the “change in t1/2” value (rats, all tested FW relative to control (water)) was “None of the tested FW caused a significant change”. For the same molecule, the “effect on exposure (AUC0–48)” value (rats, berry FW relative to control (water)) was “no effect was found”, the “decrease in apparent oral clearance (CL/F)” value [12] was 67% and the “increase in AUC0–48” value [12] was 203%. For the same molecule, the “increase in AUC0–∞” value [12] was 203%, the “increase in Cmax” value [12] was 58% and the increase in tmax [12] was about 50%. The “decrease in apparent oral clearance (CL/F)” value [13] was about 40%, the “increase in AUC0–48” value [13] was about 65% and the “increase in AUC0–∞” value [13] was about 61%. For the same molecule, the “Tmax” value (raw data sheet, from average profile, +Lime FW) was 3 h, the “% change FOR C MAX” value (raw data sheet, +Berry FW vs drug alone) was -19% FOR C MAX and the “% change FOR C MAX” value (raw data sheet, +Lime FW vs drug alone) was 60% FOR C MAX. For the same molecule, the “% change FOR C MAX” value (raw data sheet, +Peach FW vs drug alone) was -9% FOR C MAX and the “% change FOR C MAX” value (raw data sheet, +Pineapple FW vs drug alone) was 11% FOR C MAX.
